Values quoted from earlier work in patent publication US11123293B2, “Liposomal formulation for joint lubrication” (MOEBIUS MEDICAL LTD., priority 2017, dated 2021).
Values joined by “and” are separate entries in the source; they are usually repeats but may differ in a detail not shown here. Identical values can stand only once. Like-named read-outs stand apart in the source and are kept apart here.

Experiments:
rabbit's knee = conditions: solution, intra-articular injection into a rabbit's knee
[1] = pure phospholipid, literature value
joints of OA patients = conditions: injection into joints of OA patients, without major side effects

Row | SMILES | Tm [1] | also measured
1 | OC[C@@H](O)[C@@H](O)[C@H](O)[C@H](O)CO [mannitol] | – | prevention of joint irritation (rabbit's knee): did not prevent irritation
2 | CCCCCCCCCCCCC/C=C/[C@@H](O)[C@H](COP(=O)([O-])OCC[N+](C)(C)C)NC(=O)CCCCCCCCCCCCCCC [D-erythro C16, N-palmitoyl-D-erythro-sphingosylphosphorylcholine] | 41.0 °C | Tm ([1]; listed as N-palmitoyl SM): 41 °C
3 | CCCCCCCCCCCCCCCC(=O)OC[C@H](COP(=O)(O)OCC(O)CO)OC(=O)CCCCCCCCCCCCCCC (some centres unmarked) [DPPG, 1,2-dipalmitoyl-sn-glycero-3-phosphorylglycerol] | 41 °C | –
4 | CCCCCCCCCCCCCCCC(=O)OC[C@H](COP(=O)([O-])OCC[N+](C)(C)C)OC(=O)CCCCCCCCCCCCCCC [DPPC, 1,2-dipalmitoyl-sn-glycero-3-phosphocholine] | 41 °C and 41.4 °C | mobility improvement lasting (joints of OA patients): up to 14 weeks
5 | CCCCCCCCCCCCCC(=O)OC[C@H](COP(=O)(O)OCC(O)CO)OC(=O)CCCCCCCCCCCCC (some centres unmarked) [DMPG, 1,2-dimyristoyl-sn-glycero-3-phosphorylglycerol] | 23 °C | –
6 | CCCCCCCCCCCCCC(=O)OC[C@H](COP(=O)([O-])OCC[N+](C)(C)C)OC(=O)CCCCCCCCCCCCC [DMPC, 1,2-dimyristoyl-sn-glycero-3-phosphocholine] | 23 °C and ~24 °C | –
7 | CCCCCCCCCCCCCCCCCC(=O)OC[C@H](COP(=O)([O-])OCC[N+](C)(C)C)OC(=O)CCCCCCCCCCCCCCCCC [DSPC, 1,2-distearoyl-sn-glycero-3-phosphocholine] | 55 °C | –
8 | OCC(O)CO [glycerol] | – | prevention of joint irritation (rabbit's knee): did not prevent irritation
9 | CCCCCCCCCCCCCCC(=O)OC[C@H](COP(=O)([O-])OCC[N+](C)(C)C)OC(=O)CCCCCCCCCCCCCC [1,2-dipentadecanoyl-sn-glycero-3-phosphocholine] | 33.0 °C | –
